{
  "source": "paper PMC10746280",
  "about": "“Bacterial efflux pump modulators prevent bacterial growth in macrophages and under broth conditions that mimic the host environment” (mBio, 2023)",
  "key": {"[1]": {"biological_target": "Klebsiella pneumoniae AcrB multidrug efflux pump", "parameters": "method as in PMID 37067435", "conditions": "K. pneumoniae AcrB; cited from earlier work"}, "[2]": {"tested_on": "Bacillus subtilis expressing mNeongreen-FtsZ", "assay": "Membrane voltage disruption assay (mNeongreen-FtsZ delocalization)", "assay_type": "cell-based", "conditions": "150 µM, 15 min, LPM 5.5", "text": "We therefore monitored membrane integrity in the presence of EPM analogs by evaluating membrane voltage with mNeongreen-FtsZ ([28][–][30]). The FtsZ protein localizes to the bacterial septum based on membrane potential, and rapid delocalization of fluorescent FtsZ reporters occurs when voltage across the membrane is disrupted ([31], [32]). We monitored mNeongreen-FtsZ localization in a Gram-positive bacterium, Bacillus subtilis, to eliminate the potentially confounding issue of the passage of EPM analogs through the outer membrane at different rates ([24], [33][–][36]).\nTo determine whether exposure to compound dislodges FtsZ from the cell septum, an overnight culture of Bacillus subtilis grown in LPM at pH 5.5 (LPM 5.5) expressing mNeonGreen-FtsZ (strain DK5092) was exposed to DMSO, CCCP (100 µM) or an EPM analog (150 µM) for 15 or 30 min, as indicated. Bacteria were immobilized on 1% agarose pads made with LPM under a coverslip. To set the threshold value for the FtsZ septal ring, mNeonGreen signal (excitation 488 nm, emission 525 nm) from at least 20 DMSO-treated cells was quantified using a CV1000 confocal microscope with a 100× oil, NA = 1.4 objective. A background-subtracted image was made by subtracting the median intensity from full original images. A signal threshold of ≥400 arbitrary units per pixel was set (Fig. 4B). Then, we manually confirmed that mNeonGreen signal above threshold was at the center of the bacterial rod. We examined 50 cells per sample from at least three biological replicates (≥150 cells per condition). A MATLAB program (https://github.com/Betterton-Lab/FtsZ-Quantification) counted the number of pixels above threshold per cell and averaged this value across all cells for each condition and this value is reported in the graph (Fig. 4C)."}, "[3]": {"tested_on": "S. Typhimurium SL1344 (sifB::gfp) in RAW 264.7 macrophages", "assay": "SAFIRE macrophage assay: intracellular bacterial load (GFP signal within macrophages)", "assay_type": "cell-based, Salmonella enterica serotype Typhimurium", "method_in_brief": "(§1)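 RAW 264.7 macrophages infected with S. Typhimurium SL1344 sifB::gfp (MOI ~30), gentamicin 40 µg/mL, then compound from 2 h to 18 h post-infection. Confocal imaging with MitoTracker and DAPI; toxicity as adherent MitoTracker-positive macrophage count, bacterial load as GFP+ macrophage area.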"}, "S. Typhimurium": {"tested_on": "S. Typhimurium", "assay": "Checkerboard growth assays with antibiotics in LPM 5.5 (FICI and MuSyC analyses)", "assay_type": "cell-based", "parameters": "Antibiotic MIC Combination: unit not given here; EPM MIC Combination: unit: µM", "conditions": "for log10(α1) [95% CI] (log-fold-change in potency of EPM due to the antibiotic) / Βobs [95% CI] (proportion increase in maximal efficacy of the antibiotic) / log10(α2) [95% CI] (log-fold-change in potency of the antibiotic due to the EPM): MuSyC fit; for Antibiotic MIC Combination / EPM MIC Combination / FICI value: LPM 5.5", "procedure": "To examine whether the EPM analogs interact additively or synergistically with antibiotics, checkerboard growth assays were carried out in LPM 5.5. We compared three antibiotics (ciprofloxacin, doxycycline, erythromycin) and three EPM analogs (CU032, CU187, CU232) and the EPM35 parent compound (Fig. 6A). Standard fractional inhibitory concentration index (FICI) analyses supported synergy between the EPM analogs and ciprofloxacin (Fig. 6B). Since FICI values cannot distinguish between synergy due to changes in potency (activity) versus efficacy (the extent of the effect) ([42], [43]), we used the MuSyC synergy algorithm to measure EPM-antibiotic synergy ([44], [45]). The data were well fit by the MuSyC equation, with an R^2 of greater than 0.96 for all checkerboards (Table S2). […] Moreover, the consistency in the synergy of potency values across the antibiotics with different EPM analogs points toward a shared mechanism of action: the EPMs could modify the pharmacodynamics of the efflux process and prevent export of specific substrates through interactions with AcrB. We posit that the EPMs differentially reduce antibiotic export resulting in a higher effective intracellular concentration of the antibiotic.\nOvernight cation-adjusted MHB-grown cultures of SL1344 or SA10801 were diluted in MHB or LPM 5.5 to an optical density at 600 nm (OD600) of 0.01 and distributed into polystyrene 96-well flat-bottom plates. EPM analogs were added at concentrations up to 300 µM, near the limit of solubility. The antibiotics ciprofloxacin, doxycycline, and erythromycin were added up to concentrations of 2 µM, 2 µM, and 8 µM, respectively. The final DMSO concentration was at or below 2% in all wells. Plates were grown at 37°C with shaking for 18 h and OD600 was monitored (BioTek Synergy H1, BioTek Eon). Each experiment was performed with biological triplicate or higher as indicated. Percent growth was determined by normalizing to OD600 reads in wells containing no D66 or antibiotic. Checkerboards in LPM 5.5 medium were performed with culture grown overnight in LB and diluted to an OD600 of 0.01 in LPM 5.5 and compounds/antibiotics were added as previously described. MuSyC analysis was pursued as previously described ([44], [45]). Briefly, the 2D Hill equation was fit to the normalized growth inhibition data from the checkerboards using a bounded non-linear least square regression algorithm. A Monte Carlo sampling method was used to compute the 95% CI in the parameter fits from three biological replicates. The bounds on the parameters minimal and maximal efficacy of the antibiotics and EPMs (E0,Emax) were [0.99,1.01] and [0,1], respectively ([44], [45])."}, "RAW 264.7 macrophages": {"tested_on": "RAW 264.7 macrophages", "assay": "SAFIRE macrophage assay: host toxicity (adherent macrophage count, morphology)", "assay_type": "cell-based", "method_in_brief": "as §1"}},
  "data": [
    {"smiles": "CC[C@H]1OC(=O)[C@H](C)[C@@H](O[C@H]2C[C@@](C)(OC)[C@@H](O)[C@H](C)O2)[C@H](C)[C@@H](O[C@@H]2O[C@H](C)C[C@H](N(C)C)[C@H]2O)[C@](C)(O)C[C@@H](C)C(=O)[C@H](C)[C@@H](O)[C@]1(C)O", "note": "[erythromycin]", "values": [
      {"measurement": "Kd", "setting": "[1]", "result": 14.4, "unit": "µM"}
    ]},
    {"smiles": "NC1CCN(CC(O)COc2ccc(Cl)cc2)CC1", "note": "(stereo not shown) [CU187]", "values": [
      {"measurement": "effect on mNeongreen-FtsZ ring size / localization", "setting": "[2]", "result": "did not alter FtsZ localization"},
      {"measurement": "5 uM Avg Antibacterial Score", "setting": "[3]; 5 uM, 'Toxic' given instead of a score", "result": 25},
      {"measurement": "25 uM Avg Antibacterial Score", "setting": "[3]; 25 uM, 'Toxic' given instead of a score", "result": 24},
      {"measurement": "IC50", "setting": "[3]; Salmonella enterica, TYPHIMURIUM, RAW264.7, read-out: SAFIRE IC50", "result": 0.0004, "unit": "µM"},
      {"measurement": "log10(α1) [95% CI] (log-fold-change in potency of EPM due to the antibiotic)", "setting": "S. Typhimurium; Ciprofloxacin", "result": "0.33 [0.19,0.37]"},
      {"measurement": "Βobs [95% CI] (proportion increase in maximal efficacy of the antibiotic)", "setting": "S. Typhimurium; Ciprofloxacin", "result": "0.01 [-0.01,0.04]"},
      {"measurement": "log10(α1) [95% CI] (log-fold-change in potency of EPM due to the antibiotic)", "setting": "S. Typhimurium; Doxycycline", "result": "0.32 [-0.07,0.39]"},
      {"measurement": "log10(α2) [95% CI] (log-fold-change in potency of the antibiotic due to the EPM)", "setting": "S. Typhimurium; Doxycycline", "result": "0.46 [0.37,0.47]"},
      {"measurement": "Βobs [95% CI] (proportion increase in maximal efficacy of the antibiotic)", "setting": "S. Typhimurium; Doxycycline", "result": "0.02 [-0.0,0.02]"},
      {"measurement": "log10(α2) [95% CI] (log-fold-change in potency of the antibiotic due to the EPM)", "setting": "S. Typhimurium; Erythromycin", "result": "0.93 [0.85,0.96]"},
      {"measurement": "Βobs [95% CI] (proportion increase in maximal efficacy of the antibiotic)", "setting": "S. Typhimurium; Erythromycin", "result": "0.04 [0.03,0.04]"},
      {"measurement": "Antibiotic MIC Combination", "setting": "S. Typhimurium; ciprofloxacin (CIPRO) MIC in combination with the EPM", "result": 0.2},
      {"measurement": "Antibiotic MIC Combination", "setting": "S. Typhimurium; doxycycline (DOXY) MIC in combination with the EPM", "result": 1},
      {"measurement": "EPM MIC Combination", "setting": "S. Typhimurium; with ciprofloxacin (CIPRO)", "result": 66},
      {"measurement": "FICI value", "setting": "S. Typhimurium; with ciprofloxacin (CIPRO)", "result": 0.27},
      {"measurement": "EPM MIC Combination", "setting": "S. Typhimurium; with doxycycline (DOXY)", "result": 100},
      {"measurement": "FICI value", "setting": "S. Typhimurium; with doxycycline (DOXY)", "result": 0.45},
      {"measurement": "EPM MIC Combination", "setting": "S. Typhimurium; with erythromycin (ERY)", "result": 100},
      {"measurement": "FICI value", "setting": "S. Typhimurium; with erythromycin (ERY)", "result": 0.58},
      {"measurement": "5 uM Avg Cell # Score", "setting": "RAW 264.7 macrophages; 5 uM", "result": 121},
      {"measurement": "25 uM Avg Cell # Score", "setting": "RAW 264.7 macrophages; 25 uM", "result": 98}
    ]}
  ]
}
